The target of the first assay is T1, SETD2(1434-1711) (Homo sapiens, UniProt Q9BYW2).
T1 construct: SETD2 (1434-1711) Assay; catalogue N/A
T1 sequence (Q9BYW2 1434-1711): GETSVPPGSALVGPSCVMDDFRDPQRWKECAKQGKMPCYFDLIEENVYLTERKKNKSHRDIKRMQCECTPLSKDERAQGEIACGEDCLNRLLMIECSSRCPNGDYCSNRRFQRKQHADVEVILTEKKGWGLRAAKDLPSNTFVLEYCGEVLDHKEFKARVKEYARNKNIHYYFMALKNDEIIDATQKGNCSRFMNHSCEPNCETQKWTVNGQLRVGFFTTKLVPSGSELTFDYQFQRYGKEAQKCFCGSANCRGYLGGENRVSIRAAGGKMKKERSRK
The experiment in a line: SETD2 (1434-1711) assay. Format: biochemical. As to conditions: read-out: SETD2 (1434-1711).
Take `CC(=O)Nc1cccc(-c2cccc(NC(=O)c3cc4c(F)ccc(C)c4[nH]3)c2)c1` [compound 263]: the IC50 was found to be 700 nM.

Consider `Cc1ccc(F)c2cc(C(=O)Nc3cccc(N4CCC5(CCNC5)CC4)c3)[nH]c12` [compound 241], for which the IC50 is 10 nM.

Turning to `Cc1ccc(F)c2cc(C(=O)NC3CCCC(N4CCC(N(C)C(=O)C(C)(C)O)C4)C3)[nH]c12` (centres unmarked) [compound 1147], the IC50 amounted to 1200 nM.

Regarding `CCC1CN(c2cccc(NC(=O)c3cc4c(F)ccc(C)c4[nH]3)c2)CCN1C(C)=O` (centres unmarked) [compound 71], the IC50 came out at 40 nM.

`CC(=O)N1CCC(N2CCCCC(NC(=O)c3cc4c(F)ccc(C)c4[nH]3)C2)CC1` (centres unmarked) [compound 867]: the IC50 was 400 nM.

For `Cc1ccc(F)c2cc(C(=O)Nc3cccc([C@H]4CCN5C(=O)CC[C@H]5C4)c3)[nH]c12` [compound 90], the IC50 is 30 nM.

Turning to `Cc1ccc(F)c2cc(C(=O)Nc3cccc(N4CC[C@@H](N(C)C)C4)c3)[nH]c12` [compound 94], the IC50 came to 20 nM.

Take `Cc1ccc(F)c2cc(C(=O)Nc3cccc(N4CCn5cnnc5C4)c3)[nH]c12` [compound 328]: the IC50 was found to be 40 nM.

Consider `Cc1ccc(F)c2cc(C(=O)Nc3cccc(N4CC5(CN(C)C5)C4)c3)[nH]c12` [compound 135], for which the IC50 came out at 20 nM.

For the compound `Cc1cccc2cc(C(=O)N[C@H]3CC[C@H](C)CC3)[nH]c12` [compound 504], the IC50 was determined as 3800 nM.

As for `CC(=O)N1CCN(C(=O)C2CCCN(C(=O)c3cc4c(F)ccc(C)c4[nH]3)C2)CC1` (centres unmarked) [compound 886], the IC50 amounted to 8900 nM.

Regarding `Cc1ccc(F)c2cc(C(=O)Nc3cccc(N4CCC5(CCCN5)CC4)c3)[nH]c12` [compound 86], the IC50 stood at 5 nM.

As for `Cc1ccc(F)c2cc(C(=O)N[C@@H]3CCC[C@H](N4CCC5(CC4)CNC(=O)C5)C3)[nH]c12` [compound 928], the IC50 stood at 30 nM.

Take `CC(=O)N1C2CCC1CN(C1CCCC(NC(=O)c3cc4c(F)ccc(C)c4[nH]3)C1)C2` (centres unmarked) [compound 926]: the IC50 is 20 nM.

With `Cc1ccc(F)c2cc(C(=O)Nc3cccc(-c4ncno4)c3)[nH]c12` [compound 296], the IC50 came to 100 nM.

For the compound `Cc1ccc(F)c2cc(C(=O)Nc3cccc(N4CC[C@@H](N(C)C)C[C@@H]4C)c3)[nH]c12` [compound 303], the IC50 amounted to 60 nM.

With `Cc1ccc(F)c2cc(C(=O)NC(C(=O)N(C)C)c3ccccn3)[nH]c12` (centres unmarked) [compound 491], the IC50 stood at 12100 nM.

As to `Cc1ccc(F)c2cc(C(=O)Nc3cccc(N4CCOCC4CN(C)C)c3)[nH]c12` (centres unmarked) [compound 468], the IC50 amounted to 900 nM.

In the case of `Cc1ccc(F)c2cc(C(=O)Nc3cc(F)cc(N4CCC(N5CCN(CC(=O)N(C)C)CC5)C4)c3)[nH]c12` (centres unmarked) [compound 4], the IC50 worked out at 6 nM.

Regarding `CC(=O)N1CCN(c2nccc(NC(=O)c3cc4c(F)ccc(C)c4[nH]3)n2)CC1` [compound 295], the IC50 worked out at 300 nM.

As to `Cc1ccc(F)c2cc(C(=O)N[C@@H]3CCC[C@H](N4CCN(C(=O)NC5CCOCC5)CC4)C3)[nH]c12` [compound 1037], the IC50 was found to be 30 nM.

On to `Cc1ccc(F)c2cc(C(=O)Nc3cccc(N4CC[C@H](N(C)C)[C@H](C)C4)c3)[nH]c12` [compound 111], for which the IC50 amounted to 8 nM.

Regarding `CC(=O)N1C(C)CN(C2CCCC(NC(=O)c3cc4c(F)ccc(C)c4[nH]3)C2)CC1C` (centres unmarked) [compound 1123], the IC50 came to 500 nM.

`Cc1ccc(F)c2cc(C(=O)Nc3cccc(C45CCC(N(C)C)CC4C5)c3)[nH]c12` (centres unmarked) [compound 251]: the IC50 turned out to be 10 nM.

With `CC(=O)N1CC2CCC(C1)N2[C@@H]1CCC[C@@H](NC(=O)c2cc3c(F)ccc(C)c3[nH]2)C1` [compound 953], the IC50 came out at 3000 nM.

In another assay the test system is H3K36me3 in A549 cells. The experiment in a line: In-Cell Western (ICW) assay of SETD2 inhibitors (A549 assay). The class given is cell-based, human. As to conditions: A549 cells; read-out: SETD2 A549. The essentials: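 H3K36me3 In-Cell Western: cells exposed to compound for 3 days at 4,000 cells/well, 37° C. DRAQ5 (1:1000) marked cell number, with 700/800-channel Licor read-out.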
Regarding `Cc1ccc(F)c2cc(C(=O)Nc3cccc(N4CCC5(CCNC5)CC4)c3)[nH]c12` [compound 241], the IC50 was found to be 600 nM.

Consider `Cc1ccc(F)c2cc(C(=O)NC3CCCC(N4CCC(N(C)C(=O)C(C)(C)O)C4)C3)[nH]c12` (centres unmarked) [compound 1147], for which the IC50 is over 2000 nM.

With `CCC1CN(c2cccc(NC(=O)c3cc4c(F)ccc(C)c4[nH]3)c2)CCN1C(C)=O` (centres unmarked) [compound 71], the IC50 was determined as 200 nM.

Turning to `Cc1ccc(F)c2cc(C(=O)Nc3cccc([C@H]4CCN5C(=O)CC[C@H]5C4)c3)[nH]c12` [compound 90], the IC50 came to 200 nM.

Turning to `Cc1ccc(F)c2cc(C(=O)Nc3cccc(N4CC[C@@H](N(C)C)C4)c3)[nH]c12` [compound 94], the IC50 came to 200 nM.

As to `Cc1cccc2cc(C(=O)N[C@H]3CC[C@H](C)CC3)[nH]c12` [compound 504], the IC50 was 14900 nM.

Take `Cc1ccc(F)c2cc(C(=O)Nc3cccc(N4CCC5(CCCN5)CC4)c3)[nH]c12` [compound 86]: the IC50 is 200 nM.

Consider `CC(=O)N1C2CCC1CN(C1CCCC(NC(=O)c3cc4c(F)ccc(C)c4[nH]3)C1)C2` (centres unmarked) [compound 926], for which the IC50 was found to be 100 nM.

In the case of `Cc1ccc(F)c2cc(C(=O)NC(C(=O)N(C)C)c3ccccn3)[nH]c12` (centres unmarked) [compound 491], the IC50 worked out at 12200 nM.

`Cc1ccc(F)c2cc(C(=O)Nc3cc(F)cc(N4CCC(N5CCN(CC(=O)N(C)C)CC5)C4)c3)[nH]c12` (centres unmarked) [compound 4]: the IC50 was 30 nM.

Turning to `Cc1ccc(F)c2cc(C(=O)Nc3cccc(N4CC[C@H](N(C)C)[C@H](C)C4)c3)[nH]c12` [compound 111], the IC50 stood at 200 nM.

Regarding `CC(=O)N1C(C)CN(C2CCCC(NC(=O)c3cc4c(F)ccc(C)c4[nH]3)C2)CC1C` (centres unmarked) [compound 1123], the IC50 was determined as 1400 nM.

Take `Cc1ccc(F)c2cc(C(=O)Nc3cccc(C45CCC(N(C)C)CC4C5)c3)[nH]c12` (centres unmarked) [compound 251]: the IC50 came out at 600 nM.

Staying with this assay, now noted: Homo sapiens; A549 cells; read-out: SETD2 A549.
Take `CC(=O)Nc1cccc(-c2cccc(NC(=O)c3cc4c(F)ccc(C)c4[nH]3)c2)c1` [compound 263]: the IC50 was determined as 700 nM.

Consider `CC(=O)N1CCC(N2CCCCC(NC(=O)c3cc4c(F)ccc(C)c4[nH]3)C2)CC1` (centres unmarked) [compound 867], for which the IC50 is over 2000 nM.

Consider `Cc1ccc(F)c2cc(C(=O)Nc3cccc(N4CCn5cnnc5C4)c3)[nH]c12` [compound 328], for which the IC50 worked out at 1600 nM.

With `Cc1ccc(F)c2cc(C(=O)Nc3cccc(N4CC5(CN(C)C5)C4)c3)[nH]c12` [compound 135], the IC50 was 300 nM.

As to `CC(=O)N1CCN(C(=O)C2CCCN(C(=O)c3cc4c(F)ccc(C)c4[nH]3)C2)CC1` (centres unmarked) [compound 886], the IC50 is over 2000 nM.

For the compound `Cc1ccc(F)c2cc(C(=O)N[C@@H]3CCC[C@H](N4CCC5(CC4)CNC(=O)C5)C3)[nH]c12` [compound 928], the IC50 amounted to 900 nM.

Regarding `Cc1ccc(F)c2cc(C(=O)Nc3cccc(-c4ncno4)c3)[nH]c12` [compound 296], the IC50 was found to be 1100 nM.

Take `Cc1ccc(F)c2cc(C(=O)Nc3cccc(N4CC[C@@H](N(C)C)C[C@@H]4C)c3)[nH]c12` [compound 303]: the IC50 was 1200 nM.

For `Cc1ccc(F)c2cc(C(=O)Nc3cccc(N4CCOCC4CN(C)C)c3)[nH]c12` (centres unmarked) [compound 468], the IC50 amounted to 7500 nM.

Regarding `CC(=O)N1CCN(c2nccc(NC(=O)c3cc4c(F)ccc(C)c4[nH]3)n2)CC1` [compound 295], the IC50 worked out at 1100 nM.

With `Cc1ccc(F)c2cc(C(=O)N[C@@H]3CCC[C@H](N4CCN(C(=O)NC5CCOCC5)CC4)C3)[nH]c12` [compound 1037], the IC50 is 300 nM.

With `CC(=O)N1CC2CCC(C1)N2[C@@H]1CCC[C@@H](NC(=O)c2cc3c(F)ccc(C)c3[nH]2)C1` [compound 953], the IC50 was over 2000 nM.

The values above are taken from patent publication US12116358B2, “Substituted indoles and methods of use thereof” (EPIZYME, INC., priority 2018, dated 2024).
